Test results taken from PubChem BioAssay (NCI).
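In this assay, cells in 96-well plates receive the compound at five concentrations for 48 hours. Endpoints are linearly interpolated between the surrounding concentrations. At the GI50, growth is halved. At the TGI there is no net growth.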

Legend:
Assay in all cases: NCI-60 cell line screen, 48 h
OVCAR-4 ovarian = test system: OVCAR-4 ovarian
HT29 colon = test system: HT29 colon
SF-295 CNS = test system: SF-295 CNS
SW-620 colon = test system: SW-620 colon
SR leukemia = test system: SR leukemia
SF-268 CNS = test system: SF-268 CNS
MOLT-4 leukemia = test system: MOLT-4 leukemia
MDA-MB-435 = test system: MDA-MB-435
NCI-H460 lung = test system: NCI-H460 lung
KM12 colon = test system: KM12 colon
HCC-2998 colon = test system: HCC-2998 colon
SK-MEL-5 melanoma = test system: SK-MEL-5 melanoma
SK-OV-3 ovarian = test system: SK-OV-3 ovarian
HOP-62 NSCLC = test system: HOP-62 NSCLC
ACHN renal = test system: ACHN renal
SK-MEL-2 melanoma = test system: SK-MEL-2 melanoma
UACC-257 melanoma = test system: UACC-257 melanoma
HOP-92 NSCLC = test system: HOP-92 NSCLC
HCT-116 colon = test system: HCT-116 colon
OVCAR-5 ovarian = test system: OVCAR-5 ovarian
DU-145 prostate = test system: DU-145 prostate
NCI-H23 lung = test system: NCI-H23 lung
MDA-MB-231 breast = test system: MDA-MB-231 breast
SNB-75 CNS = test system: SNB-75 CNS
K-562 leukemia = test system: K-562 leukemia
EKVX NSCLC = test system: EKVX NSCLC
NCI-H226 lung = test system: NCI-H226 lung
786-0 renal = test system: 786-0 renal
SN12C renal = test system: SN12C renal
HCT-15 colon = test system: HCT-15 colon
TK-10 renal = test system: TK-10 renal
RPMI-8226 leukemia = test system: RPMI-8226 leukemia
M14 melanoma = test system: M14 melanoma
CAKI-1 renal = test system: CAKI-1 renal
U251 CNS = test system: U251 CNS
SNB-19 CNS = test system: SNB-19 CNS
UACC-62 melanoma = test system: UACC-62 melanoma
PC-3 prostate = test system: PC-3 prostate
IGROV1 ovarian = test system: IGROV1 ovarian
BT-549 breast = test system: BT-549 breast
OVCAR-8 ovarian = test system: OVCAR-8 ovarian
MCF7 breast = test system: MCF7 breast
MALME-3M melanoma = test system: MALME-3M melanoma
LOX IMVI melanoma = test system: LOX IMVI melanoma
HS 578T breast = test system: HS 578T breast
SK-MEL-28 melanoma = test system: SK-MEL-28 melanoma
UO-31 renal = test system: UO-31 renal
OVCAR-3 ovarian = test system: OVCAR-3 ovarian
NCI/ADR-RES ovarian = test system: NCI/ADR-RES ovarian
SF-539 CNS = test system: SF-539 CNS
CCRF-CEM leukemia = test system: CCRF-CEM leukemia
HL-60(TB) leukemia = test system: HL-60(TB) leukemia
NCI-H522 lung = test system: NCI-H522 lung
T-47D breast = test system: T-47D breast
A549 NSCLC = test system: A549 NSCLC
COLO 205 colon = test system: COLO 205 colon
A498 renal = test system: A498 renal

C[C@]12CC[C@@H]3c4ccc(OC(=O)N(CCCl)CCCl)cc4CC[C@H]3[C@@H]1CC[C@@H]2OP(=O)(O)O
GI50 (OVCAR-4 ovarian): > 58.1 µM
TGI (OVCAR-4 ovarian): > 100 µM
GI50 (HT29 colon): 33.7 µM
TGI (HT29 colon): > 100 µM
GI50 (SF-295 CNS): 12.5 µM
TGI (SF-295 CNS): 32.5 µM
GI50 (SW-620 colon): > 80.7 µM
TGI (SW-620 colon): > 100 µM
GI50 (SR leukemia): 9.82 µM
TGI (SR leukemia): 33.3 µM
GI50 (SF-268 CNS): > 75.5 µM
TGI (SF-268 CNS): > 100 µM
GI50 (MOLT-4 leukemia): > 59.3 µM
TGI (MOLT-4 leukemia): > 100 µM
GI50 (MDA-MB-435): 15.6 µM
TGI (MDA-MB-435): 50.4 µM
GI50 (NCI-H460 lung): 36.1 µM
TGI (NCI-H460 lung): > 100 µM
GI50 (KM12 colon): 40.3 µM
TGI (KM12 colon): > 100 µM
GI50 (HCC-2998 colon): > 74.4 µM
TGI (HCC-2998 colon): > 100 µM
GI50 (SK-MEL-5 melanoma): 37.7 µM
TGI (SK-MEL-5 melanoma): > 100 µM
GI50 (SK-OV-3 ovarian): 32.7 µM
TGI (SK-OV-3 ovarian): > 89.2 µM
GI50 (HOP-62 NSCLC): 63 µM
TGI (HOP-62 NSCLC): > 100 µM
GI50 (ACHN renal): 62.6 µM
TGI (ACHN renal): > 100 µM
GI50 (SK-MEL-2 melanoma): 41.8 µM
TGI (SK-MEL-2 melanoma): > 100 µM
GI50 (UACC-257 melanoma): 44.5 µM
TGI (UACC-257 melanoma): > 80.6 µM
GI50 (HOP-92 NSCLC): > 100 µM
TGI (HOP-92 NSCLC): > 100 µM
GI50 (HCT-116 colon): 41.9 µM
TGI (HCT-116 colon): > 100 µM
GI50 (OVCAR-5 ovarian): > 62.7 µM
TGI (OVCAR-5 ovarian): > 100 µM
GI50 (DU-145 prostate): 59.5 µM
TGI (DU-145 prostate): > 100 µM
GI50 (NCI-H23 lung): 38.4 µM
TGI (NCI-H23 lung): > 100 µM
GI50 (MDA-MB-231 breast): 26.8 µM
TGI (MDA-MB-231 breast): > 64.3 µM
GI50 (SNB-75 CNS): 29.2 µM
TGI (SNB-75 CNS): > 66.7 µM
GI50 (K-562 leukemia): > 73.5 µM
TGI (K-562 leukemia): > 100 µM
GI50 (EKVX NSCLC): 33.2 µM
TGI (EKVX NSCLC): > 100 µM
GI50 (NCI-H226 lung): 43.7 µM
TGI (NCI-H226 lung): > 100 µM
GI50 (786-0 renal): 43.9 µM
TGI (786-0 renal): > 100 µM
GI50 (SN12C renal): 17.2 µM
TGI (SN12C renal): 40.1 µM
GI50 (HCT-15 colon): 43.5 µM
TGI (HCT-15 colon): > 100 µM
GI50 (TK-10 renal): > 38.3 µM
TGI (TK-10 renal): > 100 µM
GI50 (RPMI-8226 leukemia): 39.8 µM
TGI (RPMI-8226 leukemia): > 100 µM
GI50 (M14 melanoma): 37.7 µM
TGI (M14 melanoma): > 100 µM
GI50 (CAKI-1 renal): > 77.1 µM
TGI (CAKI-1 renal): > 100 µM
GI50 (U251 CNS): 33.9 µM
TGI (U251 CNS): > 100 µM
GI50 (SNB-19 CNS): 28.5 µM
TGI (SNB-19 CNS): > 57.8 µM
GI50 (UACC-62 melanoma): 22.9 µM
TGI (UACC-62 melanoma): > 72.5 µM
GI50 (PC-3 prostate): 41.2 µM
TGI (PC-3 prostate): > 100 µM
GI50 (IGROV1 ovarian): > 100 µM
TGI (IGROV1 ovarian): > 100 µM
GI50 (BT-549 breast): 27.1 µM
TGI (BT-549 breast): 79.1 µM
GI50 (OVCAR-8 ovarian): > 85.6 µM
TGI (OVCAR-8 ovarian): > 100 µM
GI50 (MCF7 breast): > 100 µM
TGI (MCF7 breast): > 100 µM
GI50 (MALME-3M melanoma): 83.5 µM
TGI (MALME-3M melanoma): > 100 µM
GI50 (LOX IMVI melanoma): 46.2 µM
TGI (LOX IMVI melanoma): > 100 µM
GI50 (HS 578T breast): 26.7 µM
TGI (HS 578T breast): > 76.9 µM
GI50 (SK-MEL-28 melanoma): 37.3 µM
TGI (SK-MEL-28 melanoma): > 100 µM
GI50 (UO-31 renal): 79.9 µM
TGI (UO-31 renal): > 100 µM
GI50 (OVCAR-3 ovarian): 46.7 µM
TGI (OVCAR-3 ovarian): > 95.2 µM
GI50 (NCI/ADR-RES ovarian): 49.5 µM
TGI (NCI/ADR-RES ovarian): > 100 µM
GI50 (SF-539 CNS): 22.3 µM
TGI (SF-539 CNS): > 58.1 µM
GI50 (CCRF-CEM leukemia): 25.7 µM
TGI (CCRF-CEM leukemia): > 78.7 µM
GI50 (HL-60(TB) leukemia): 30.1 µM
TGI (HL-60(TB) leukemia): 98.5 µM
GI50 (NCI-H522 lung): 28.8 µM
TGI (NCI-H522 lung): > 71.5 µM
GI50 (T-47D breast): > 56.4 µM
TGI (T-47D breast): > 100 µM
GI50 (A549 NSCLC): 48.8 µM
TGI (A549 NSCLC): > 100 µM
GI50 (COLO 205 colon): 57.8 µM
TGI (COLO 205 colon): > 100 µM
GI50 (A498 renal): 16 µM
TGI (A498 renal): 42.2 µM
